Experimental data taken from patent US20030154517A1, “Efficiency agrobacterium-mediated wheat transformation method” (priority 2001, published 2003).
Values joined by “and” are separate entries in the source; they are usually repeats but may differ in a detail not shown here. Equal values may be shown once. Read-outs that look alike come from different tables or passages of the source.

How the values were obtained:
[1] = test system: immature embryos of wheat; assay: Agrobacterium-mediated wheat transformation, nptII (G418/kanamycin) selection (transformation efficiency); type: cell-based, Triticum aestivum L
Excerpt: Immature embryos of wheat (Triticum aestivum L) cv Bobwhite were isolated from the immature caryopsis (wheat spikelets) 12-15 days after pollination, and cultured on CM4C (Table 2) for 1-8 days, most typically for 4-6. The embryos without embryogenic callus were selected for Agrobacterium inoculation.
A disarmed Agrobacterium strain C58 (ABI) harboring a binary vector was used for all the experiments. […] The Agrobacterium cells were resuspended in the inoculation medium and the density was adjusted to an OD660 of 1. […] An equal amount of the Agrobacterium cell suspension was added such that the final concentration of Agrobacterium cells was an OD660 of 0.5. In most experiments, pluronic F68 was added to the inoculation mixture at a final concentration of 0.01%. The ratio between the Agrobacterium and immature embryos (IEs) was about 10 mL: 20-200 IEs. The conditions for inoculation were temperatures from about 23° C.-26° C. with a duration from about 5-60 minutes.
After the inoculation period, the remaining Agrobacterium cells were removed from the explants by using the in-house vacuum equipment. A piece of sterile Whatman No. 1 filter paper (to fit the size of the petri plate) was placed in each of 60×15 or 60×20 mm petri dishes without additional liquid or agar-supplemented media. Two hundred microliters of sterile water was placed in the middle of the filter paper. After 2-3 minutes, the inoculated immature embryos were placed in the plates. Usually, 20-50 explants are grouped as one stack (about 1 cm in size and 60-80 mg/stack), with 4-5 stacks on each plate. The plates were immediately parafilmed and then co-cultivated in the dark at 24° C.-26° C. for 2-3 days.
For nptII selection, immature embryos were isolated, precultured, inoculated, and co-cultured as previously described. After the 3-day co-culture, embryos were transferred to delay culture (solid CM4C2D) media (CM4C media as in Table 2 with 2 mg/L 2,4-D) with 500 mg/L carbenicillin for 7 days in the dark at 25° C. Selection was done in liquid CM4C media (as in Table 2 without the Phytagel) with 100 mg/L carbenicillin and 20 mg/L G418 on a support for 7 days in the dark followed by 7 days in the light (16 hr photoperiod), at 25° C. The calli were then transferred to liquid MMS0.2C media (as in Table 2 without the gelling agent) with 100 mg/L carbenicillin and 25 mg/L G418 on a support for 2 weeks at 25° C. with a 16 hr photoperiod. After 2 weeks, the calli were transferred to liquid MMSOC media (as in Table 2 without the gelling agent) with 100 mg/L carbenicillin and 25 mg/L G418 on a support for 2 to 4 weeks at 25° C. with a 16 hr photoperiod. Plantlets were transferred to solid MMSOC media with 100 mg/L carbenicillin and 25 mg/L G418 in sundae cups for 1 to 4 weeks at 25° C. with a 16 hr photoperiod.

[2] = test system: wheat callus cultures; conditions: for 1 shoot/callus / 2 shoots/callus / 3 shoots/callus / 4 shoots/callus / Regenerable callus, # / Regenerable callus, % / Shoots, #: no glyphosate; for Shoots, #: two experiments
Protocol: Five treatments were done: 1) control (0.1 μM Cu as in MS medium) without additional copper; 2) 2 μM copper, applied at delay and selection for 2 weeks total; 3) 2 μM Cu at 1st regeneration for 2 weeks; 4) 2 μM Cu at 2nd regeneration for 2 or more weeks; and 5) 2 μM Cu constantly present at all of these stages.

[3] = test system: immature embryos of wheat (Triticum aestivum L) cv Bobwhite; assay: Agrobacterium-mediated wheat transformation, glyphosate selection (transformation efficiency); type: cell-based; conditions: for Over all % TE / Total Ind. Events: six experiments; for Transgenic #: Expt. 309 and Expt. 314
[4] = 2 μM Cu at 2nd Reg. (MMS0C), 2 w.
[5] = Table 16: 250 μM CuSO4 in MMS0C
[6] = Table 16: 500 μM CuSO4 in MMS0C
[7] = Table 16: 750 μM CuSO4 in MMS0C
[8] = Table 16: 1000 μM CuSO4 in MMS0C
[9] = Table 16: 1500 μM CuSO4 in MMS0C
[10] = Table 16: 2000 μM CuSO4 in MMS0C
[11] = Table 16: 3000 μM CuSO4 in MMS0C

In the case of O=S(=O)([O-])[O-].[Cu+2] [CuSO4, copper sulfate], the Independent transgenic events/explants [1] is reported as 37/220 and 63/228 and 48/211 and 46/275 and 53/225, the “% TE” value ([1]; 2 μM copper sulfate in MMSOC, nptII liquid system, per experiment and Totals, listed as Copper sulfate) is reported as 3.72% and 2.16% and 0.57% and 9.43% and 9.14% and 4.51% and 1.56% and the “% TE” value ([1]; 2 μM copper sulfate in MMSOC, nptII liquid system, per experiment and Totals, listed as copper) is reported as 4.5%. The “% TE” value ([1]; 20 μM copper sulfate in MMSOC, nptII liquid system, per experiment and Totals) was 7.2%, the “% TE” value ([1]; Table 19: compound at 2 μM in second regeneration stage (MMSOC media)) was 16.8% and the “% TE” value ([1]; Table 19: compound at 20 μM in second regeneration stage (MMSOC media)) was 27.6% and 30.6% and 22.7% and 16.7% and 23.6%. The “% TE” value ([1]; Table 19: compound at 20 μM in second regeneration stage (MMSOC media), listed as copper sulfate) was 27.6% and 16.7% and 22.7%, the 1 shoot/callus ([2]; 2 μM Cu at 1st Reg., 2 w.) was 11.8 and the 2 shoots/callus ([2]; 2 μM Cu at 1st Reg., 2 w.) was 9.3. For the same compound, the 3 shoots/callus ([2]; 2 μM Cu at 1st Reg., 2 w.) was 3.3, the 4 shoots/callus ([2]; 2 μM Cu at 1st Reg., 2 w.) was 1.3 and the “Regenerable callus, #” value ([2]; 2 μM Cu at 1st Reg., 2 w.) was 30.5. The “Regenerable callus, %” value ([2]; 2 μM Cu at 1st Reg., 2 w.) was 61%, the “Shoots, #” value ([2]; 2 μM Cu at 1st Reg., 2 w.) was 44 and the “effect on regeneration” value ([2]; 2 μM Cu at 1st regeneration stage) was “very little or no effect”. The “Regenerable callus, #” value [2, 4] was 40, the “Regenerable callus, %” value [2, 4] was 80% and the “Shoots, #” value [2, 4] was 80.5. The 2 shoots/callus ([2]; 2 μM Cu at 2nd Reg., 2 w.) was 12.5, the 3 shoots/callus ([2]; 2 μM Cu at 2nd Reg., 2 w.) was 9.8 and the 4 shoots/callus ([2]; 2 μM Cu at 2nd Reg., 2 w.) was 4.3. For the same compound, the “effect on regeneration” value ([2]; 2 μM Cu at 2nd regeneration stage) was “most significant increase in regeneration”, the 1 shoot/callus ([2]; 2 μM Cu at Delay/Sel., 2 w.) was 14.3 and the 2 shoots/callus ([2]; 2 μM Cu at Delay/Sel., 2 w.) was 8.5. The 3 shoots/callus ([2]; 2 μM Cu at Delay/Sel., 2 w.) was 7.8, the 4 shoots/callus ([2]; 2 μM Cu at Delay/Sel., 2 w.) was 0.5 and the “Regenerable callus, #” value ([2]; 2 μM Cu at Delay/Sel., 2 w.) was 35.6. For the same compound, the “Regenerable callus, %” value ([2]; 2 μM Cu at Delay/Sel., 2 w.) was 71%, the “Shoots, #” value ([2]; 2 μM Cu at Delay/Sel., 2 w.) was 57.5 and the 1 shoot/callus ([2]; 2 μM Cu at all stages, 6 w.) was 9. For the same compound, the 2 shoots/callus ([2]; 2 μM Cu at all stages, 6 w.) was 11.5, the 3 shoots/callus ([2]; 2 μM Cu at all stages, 6 w.) was 2.5 and the 4 shoots/callus ([2]; 2 μM Cu at all stages, 6 w.) was 0.5. For the same compound, the “Regenerable callus, #” value ([2]; 2 μM Cu at all stages, 6 w.) was 30.5, the “Regenerable callus, %” value ([2]; 2 μM Cu at all stages, 6 w.) was 61% and the “Shoots, #” value ([2]; 2 μM Cu at all stages, 6 w.) was 37. The “effect on regeneration” value ([2]; 2 μM Cu at delay and selection stage) was “Some improvement”, the “effect on regeneration” value ([2]; 2 μM Cu present at all stages) was “No improvement” and the “improvement in TE (×)” value ([3]; 1.0 μM copper sulfate in MMS0C, experiment 309) was 2.5 ×. The “improvement in TE (×)” value ([3]; 1.0 μM copper sulfate in MMS0C, experiment 314) was roughly 4 ×, the “improvement in TE (×)” value ([3]; 2.0 μM copper sulfate in MMS0C, experiment 309) was 3.5 × and the “improvement in TE (×)” value ([3]; 2.0 μM copper sulfate in MMS0C, experiment 314) was roughly 10 ×. For the same compound, the “TE %” value ([3]; CuSO4 2 μM, initial 14 days (2 weeks) of last regeneration stage (MMS0C), per experiment and Total/average of twelve, listed as Cu) was 16.6%, the “% TE” value ([3]; Table 14: 2 μM Cu in MMS0C, per experiment and Total, listed as Cu) was 11.4% and 15.1% and 9.4% and the “% TE” value ([3]; Table 14: 20 μM Cu in MMS0C, per experiment and Total, listed as Cu) was 17.4% and 20.3% and 15.9%. For the same compound, the “Over all % TE” value ([3]; Table 15: 20 μM CuSO4 in MMS0C) was 17.6%, the “Total Ind. Events” value ([3]; Table 15: 20 μM CuSO4 in MMS0C) was 103 and the “% TE” value ([3]; Table 15: 40 μM CuSO4 in MMS0C, experiments 292, 293, 295, 296, 297, 301) was 14.0% and 13.9% and 22.6% and 21.8% and 20.7% and 19.6%. The “Over all % TE” value ([3]; Table 15: 40 μM CuSO4 in MMS0C) was 18.6%, the “Total Ind. Events” value ([3]; Table 15: 40 μM CuSO4 in MMS0C) was 109 and the “Over all % TE” value ([3]; Table 15: 80 μM CuSO4 in MMS0C) was 16.6%. The “Total Ind. Events” value ([3]; Table 15: 80 μM CuSO4 in MMS0C) was 98, the “% TE” value ([3]; Table 16: 40 μM CuSO4 in MMS0C) was 17.5% and the Transgenics ([3]; Table 16: 40 μM CuSO4 in MMS0C) was 14. For the same compound, the “% TE” value [3, 5] was 20%, the Transgenics [3, 5] was 16 and the “% TE” value [3, 6] was 24% and 23.75%. The Transgenics [3, 6] was 19, the “% TE” value [3, 7] was 15.0% and the Transgenics [3, 7] was 12. The “% TE” value [3, 8] was 10.0%, the Transgenics [3, 8] was 8 and the “% TE” value [3, 9] was 13.8%. For the same compound, the Transgenics [3, 9] was 11, the “% TE” value [3, 10] was 11.1% and the Transgenics [3, 10] was 4. For the same compound, the “% TE” value [3, 11] was 5.6%, the Transgenics [3, 11] was 2 and the “% TE” value ([3]; Table 17: 0.25 μM CuSO4 in MMS0C, both experiments) was 4.8%. The “Transgenic #” value ([3]; Table 17: 0.5 μM CuSO4 in MMS0C) was 4 and 5, the “% TE” value ([3]; Table 17: 0.5 μM CuSO4 in MMS0C, both experiments) was 4.3% and the “Transgenic #” value ([3]; Table 17: 1.0 μM CuSO4 in MMS0C) was 10 and 11. The “% TE” value ([3]; Table 17: 1.0 μM CuSO4 in MMS0C, both experiments) was 10.1%, the “% TE” value ([3]; Table 17: 2.0 μM CuSO4 in MMS0C, both experiments) was 20.7% and the “TE, average” value ([3]; copper sulfate from 20 to 80 μM inclusive in MMS0C, Table 15) was 17.6%.
